PubChem BioAssay (NCI)
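Cells were grown in 96-well plates and exposed to each compound for 48 hours at five concentrations; endpoints were interpolated linearly between bracketing concentrations, or set to the highest concentration if not reached. TGI marks complete inhibition of growth.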

Tests used:
Test in all cases: NCI tumour cell line growth inhibition, 48 h
DMS 114 small cell lung = system: DMS 114 small cell lung
KM20L2 colon = system: KM20L2 colon
M19-MEL melanoma = system: M19-MEL melanoma
P388 leukemia = system: P388 leukemia
P388/ADR leukemia = system: P388/ADR leukemia
XF 498 CNS = system: XF 498 CNS
LXFL 529 NSCLC = system: LXFL 529 NSCLC
SN12K1 renal = system: SN12K1 renal

SMILES | TGI (DMS 114 small cell lung) [µM] | TGI (KM20L2 colon) [µM] | TGI (M19-MEL melanoma) [µM] | TGI (P388 leukemia) [µM] | TGI (P388/ADR leukemia) [µM] | TGI (XF 498 CNS) [µM] | TGI (LXFL 529 NSCLC) [µM] | TGI (SN12K1 renal) [µM]
O=[N+]([O-])c1ccc(Nc2cccc3c2[nH]c2c(-c4ccccc4)nccc23)c([N+](=O)[O-])c1 | > 100 | > 100 | > 100 | > 69.2 | > 100 | > 100 | – | –
COc1ccc(C2=NN(c3nsc4ccccc34)C(=O)CC2)cc1 | > 100 | > 100 | > 100 | – | – | – | > 100 | –
CC1=C(C(=O)NCc2ccccc2)C(c2ccco2)C(C(=O)NCc2ccccc2)=C(C)N1 | > 100 | > 100 | – | – | – | > 100 | > 100 | –
O=S(=O)(O)c1cc(N=[N+]([O-])c2ccc(N=Nc3ccccc3)cc2S(=O)(=O)O)ccc1/C=C/c1ccc(N=[N+]([O-])c2ccc(N=Nc3ccccc3)cc2S(=O)(=O)O)cc1S(=O)(=O)O | > 100 | – | > 100 | > 100 | – | > 100 | – | > 31.6
CSc1nc(-c2ccccc2)nc(=[N+]2CCOCC2)s1 | – | > 100 | > 100 | – | – | – | > 100 | –
CC(C)(C)CC(C)(C)NCC(O)COc1ccc(C(C)(C)c2ccc(OCC(O)CNC(C)(C)CC(C)(C)C)cc2)cc1 (stereo unspecified) | 3.21 | 2.88 | 2.88 | – | – | 3.02 | 1.3 | –
Cc1ccc(S(=O)(=O)N/N=C\c2c3ccccc3[n+](C)c3ccccc23)cc1 | > 100 | > 100 | > 100 | – | – | – | – | –
Nc1ncc2c(n1)-c1ccccc1OC2 | > 100 | > 100 | > 100 | > 100 | – | > 100 | – | > 100
